Results reported in patent publication US8697877B2, “Oxyindole derivatives with motilin receptor agonistic activity” (RaQualia Pharma Inc., priority 2009, dated 2014).

molecular target: T1, human motilin receptor (GPR38) (Homo sapiens, UniProt O43193); experiment: GPR38 (Motilin Receptor) Functional Assay, NFAT-beta-lactamase reporter in CHO-K1 cells; assay type: cell-based; conditions: not given
T1 construct: expressed in transfected cells; host or cells: CHO-K1
Experimental: The potencies and efficacies of the compounds of this invention for GPR38 can be determined by reporter assay performed on the human cloned receptor as described herein.
GPR38 (Motilin Receptor) Functional Assay
A CHO-K1 cell line stably transfected NFAT-beta-lactamase reporter and human motilin receptor gene was used. The cells were cultured in culture medium (Dulbecco's modified eagle medium containing 10% fetal bovine serum, 1 mM sodium pyruvate, 0.1 mM MEM nonessential amino acids, 25 mM HEPES buffer, 50 units/mL penicillin, 50 microg/mL streptomycin, 100 microg/mL zeocin, and 500 microg/mL G418). The cells were harvested with 0.05% trypsin EDTA and centrifuged. The cell pellets were resuspended in the culture medium and plated into a black/clear bottom 384-well plate at a density of 8000 cells per well, then incubated at 37° C. with 5% CO2 for over night (about 20 hours). On the day of assay, the culture medium was aspirated and 20 microL of assay medium (Dulbecco's modified eagle medium containing 100 units/mL penicillin and 100 microg/mL streptomycin) was added to each well, then the cell plates were placed in incubator at 37° C. with 5% CO2 for 1.5 hours. Compounds were prepared in 100% DMSO and these were diluted to 5× of final concentration with assay buffer (Hanks balanced salt solution, 20 mM HEPES, and 0.1% BSA), then dispensed into 384-well plate (5 microL/well). After incubation at 37° C. with 5% CO2 for 4.5 hours, CCF4-AM loading solution (Invitrogen Corp.) was added to each well. After incubation for 2 hours at room temperature, fluorescence intensities were measured by using plate reader FDSS (Hamamatsu Photonics K. K.) with excitation 400 nm, emission 465 nm/540 nm. Agonistic activity (EC50) was calculated from the sigmoidal dose-response curve using GraphPad Prism software (GraphPad Software, Inc.).

T1 sequence (O43193 whole entry): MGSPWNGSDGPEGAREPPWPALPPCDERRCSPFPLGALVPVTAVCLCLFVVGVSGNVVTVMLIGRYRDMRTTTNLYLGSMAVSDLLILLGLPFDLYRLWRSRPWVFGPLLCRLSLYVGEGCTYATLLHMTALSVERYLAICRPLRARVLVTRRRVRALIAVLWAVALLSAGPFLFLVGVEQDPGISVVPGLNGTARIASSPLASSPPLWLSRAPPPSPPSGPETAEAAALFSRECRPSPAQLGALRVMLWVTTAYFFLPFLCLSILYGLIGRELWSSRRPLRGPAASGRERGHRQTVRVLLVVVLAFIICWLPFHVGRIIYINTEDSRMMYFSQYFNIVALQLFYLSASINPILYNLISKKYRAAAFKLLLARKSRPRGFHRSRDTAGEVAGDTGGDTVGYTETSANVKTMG

Q: For CC1(C)C(=O)N(C2CCN(C(=O)[C@H](CCc3ccccc3)NC(=O)[C@@H]3CCCNC3)CC2)c2ccccc21 [Example 1, (R)—N—((S)-1-(4-(3,3-dimethyl-2-oxoindolin-1-yl)piperidin-1-yl)-1-oxo-4-phenylbutan-2-yl)piperidine-3-carboxamide], which EC50 is on record?
A: The EC50 was no more than 10 nM.

Q: Which EC50 does the source give for CC1(C)C(=O)N(C2CCN(C(=O)[C@H](CCc3ccccc3)NC(=O)[C@@H]3CCCCN3)CC2)c2ccccc21 [Example 2, (S)-N-((S)-1-(4-(3,3-dimethyl-2-oxoindolin-1-yl)piperidin-1-yl)-1-oxo-4-phenylbutan-2-yl)piperidine-2-carboxamide] here?
A: Its EC50 is no more than 10 nM.

Q: How did the EC50 turn out when CC1(C)C(=O)N(C2CCN(C(=O)[C@H](CCc3ccccc3)NC(=O)[C@@H](N)C(C)(C)C)CC2)c2ccccc21 [Example 3, (S)-2-amino-N-((S)-1-(4-(3,3-dimethyl-2-oxoindolin-1-yl)piperidin-1-yl)-1-oxo-4-phenylbutan-2-yl)-3,3-dimethylbutanamide] was run?
A: Its EC50 is no more than 10 nM.

Q: CC1(C)C(=O)N(C2CCN(C(=O)[C@H](CCc3ccccc3)NC(=O)CC3(N)CCC3)CC2)c2ccccc21 [Example 6, (S)-2-(1-aminocyclobutyl)-N-(1-(4-(3,3-dimethyl-2-oxoindolin-1-yl)piperidin-1-yl)-1-oxo-4-phenylbutan-2-yl)acetamide] was tested. Which EC50 did it give?
A: Its EC50 is no more than 10 nM.

Q: CC1(C)C(=O)N(C2CCN(C(=O)[C@H](CCc3ccccc3)NC(=O)C3(CN)CC3)CC2)c2ccccc21 [Example 7, (S)-1-(aminomethyl)-N-(1-(4-(3,3-dimethyl-2-oxoindolin-1-yl)piperidin-1-yl)-1-oxo-4-phenylbutan-2-yl)cyclopropanecarboxamide] was tested. Which EC50 did it give?
A: Its EC50 is no more than 10 nM.

Q: With CC1(C)C(=O)N(C2CCN(C(=O)[C@H](CCc3ccccc3)NC(=O)C3CNC3)CC2)c2ccccc21 [Example 9, (S)-N-(1-(4-(3,3-dimethyl-2-oxoindolin-1-yl)piperidin-1-yl)-1-oxo-4-phenylbutan-2-yl)azetidine-3-carboxamide] as the molecule, how does the EC50 read?
A: Its EC50 is no more than 10 nM.

Q: Which EC50 does the source give for CC1(C)C(=O)N(C2CCN(C(=O)[C@H](CCc3ccccc3)NC(=O)C3CCNCC3)CC2)c2ccccc21 [Example 10, (S)-N-(1-(4-(3,3-dimethyl-2-oxoindolin-1-yl)piperidin-1-yl)-1-oxo-4-phenylbutan-2-yl)piperidine-4-carboxamide] here?
A: Its EC50 is no more than 10 nM.

Q: How did the EC50 turn out when CC1(C)C(=O)N(C2CCN(C(=O)[C@H](CCc3ccccc3)NC(=O)CC3(N)CCCC3)CC2)c2ccccc21 [Example 12, (S)-2-(1-aminocyclopentyl)-N-(1-(4-(3,3-dimethyl-2-oxoindolin-1-yl)piperidin-1-yl)-1-oxo-4-phenylbutan-2-yl)acetamide] was run?
A: The EC50 was no more than 10 nM.

Q: With CNC(C)(C)CC(=O)N[C@@H](CCc1ccccc1)C(=O)N1CCC(N2C(=O)C(C)(C)c3ccccc32)CC1 [Example 13, (S)-N-(1-(4-(3,3-dimethyl-2-oxoindolin-1-yl)piperidln-1-yl)-1-oxo-4-phenylbutan-2-yl)-3-methyl-3-(methylamino) butanamide] as the molecule, how does the EC50 read?
A: The EC50 was no more than 10 nM.

Q: With CC1(C)C(=O)N(C2CCN(C(=O)[C@H](CCc3ccccc3)NC(=O)CCNC3CCCC3)CC2)c2ccccc21 [Example 14, (S)-3-(cyclopentylamino)-N-(1-(4-(3,3-dimethyl-2-oxoindolin-1-yl)piperidin-1-yl)-1-oxo-4-phenylbutan-2-yl)propanamide] as the molecule, how does the EC50 read?
A: The EC50 was no more than 10 nM.

Q: Which EC50 does the source give for COCCN(C)CCC(=O)N[C@@H](CCc1ccccc1)C(=O)N1CCC(N2C(=O)C(C)(C)c3ccccc32)CC1 [Example 15, (S)-N-(1-(4-(3,3-dimethyl-2-oxoindolin-1-yl)piperidin-1-yl)-1-oxo-4-phenylbutan-2-yl)-3-((2-methoxyethyl)(methyl)amino) propanamide] here?
A: The EC50 was no more than 10 nM.

Q: With CC1(C)C(=O)N(C2CCN(C(=O)[C@H](CCc3ccccc3)NC(=O)CN3CCCC3)CC2)c2ccccc21 [Example 17, (S)—N-(1-(4-(3,3-dimethyl-2-oxoindolin-1-yl)piperidin-1-yl)-1-oxo-4-phenylbutan-2-yl)-2-(pyrrolidin-1-yl)acetamide] as the molecule, how does the EC50 read?
A: Its EC50 is no more than 10 nM.

Q: CN1CCC[C@@H](C(=O)N[C@@H](CCc2ccccc2)C(=O)N2CCC(N3C(=O)C(C)(C)c4ccccc43)CC2)C1 [Example 20, (R)—N—((S)-1-(4-(3,3-dimethyl-2-oxoindolin-1-yl)piperidin-1-yl)-1-oxo-4-phenylbutan-2-yl)-1-methylpiperidine-3-carboxamide] was tested. Which EC50 did it give?
A: Its EC50 is no more than 10 nM.

Q: How did the EC50 turn out when CN[C@@H]1CC[C@H](C(=O)N[C@@H](Cc2ccc(Cl)cc2)C(=O)N2CCC(N3C(=O)C(C)(C)c4ccccc43)CC2)C1 [Example 21, (1S,3R)—N—((S)-3-(4-chlorophenyl)-1-(4-(3,3-dimethyl-2-oxoindolin-1-yl)piperidin-1-yl)-1-oxopropan-2-yl)-3-(methylamino)cyclopentanecarboxamide] was run?
A: Its EC50 is no more than 10 nM.

Q: For CN[C@@H]1CC[C@H](C(=O)N[C@@H](Cc2ccccc2C(F)(F)F)C(=O)N2CCC(N3C(=O)C(C)(C)c4ccccc43)CC2)C1 [Example 22, (1S,3R)-N-((S)-1-(4-(3,3-dimethyl-2-oxoindolin-1-yl)piperidin-1-yl)-1-oxo-3-(2-(trifluoromethyl)phenyl)propan-2-yl)-3-(methylamino)cyclopentane-carboxamide], which EC50 is on record?
A: The EC50 was no more than 10 nM.

Q: Which EC50 does the source give for CN[C@@H]1CC[C@H](C(=O)N[C@@H](CC2CCCCC2)C(=O)N2CCC(N3C(=O)C(C)(C)c4ccccc43)CC2)C1 [Example 23, (1S,3R)-N-((S)-3-cyclohexyl-1-(4-(3,3-dimethyl-2-oxoindolin-1-yl)piperidin-1-yl)-1-oxopropan-2-yl)-3-(methyl-amino)cyclopentanecarboxamide] here?
A: The EC50 was no more than 10 nM.

Q: Which EC50 does the source give for CN[C@@H]1CC[C@H](C(=O)N[C@@H](Cc2cccc3ccccc23)C(=O)N2CCC(N3C(=O)C(C)(C)c4ccccc43)CC2)C1 [Example 24, (1S,3R)-N-((S)-1-(4-(3,3-dimethyl-2-oxoindolin-1-yl)piperidin-1-yl)-3-(naphthalen-1-yl)-1-oxopropan-2-yl)-3-(methylamino)cyclopentane-carboxamide] here?
A: The EC50 was no more than 10 nM.

Q: With CN[C@@H]1CC[C@H](C(=O)N[C@@H](Cc2ccccc2Cl)C(=O)N2CCC(N3C(=O)C(C)(C)c4ccccc43)CC2)C1 [Example 25, (1S,3R)-N-((S)-3-(2-chlorophenyl)-1-(4-(3,3-dimethyl-2-oxoindolin-1-yl)piperidin-1-yl)-1-oxopropan-2-yl)-3-(methylamino)cyclopentane-carboxamide] as the molecule, how does the EC50 read?
A: Its EC50 is no more than 10 nM.

Q: How did the EC50 turn out when CN[C@@H]1CC[C@H](C(=O)N[C@@H](Cc2ccccc2C)C(=O)N2CCC(N3C(=O)C(C)(C)c4ccccc43)CC2)C1 [Example 26, (1S,3R)-N-((S)-1-(4-(3,3-dimethyl-2-oxoindolin-1-yl)piperidin-1-yl)-1-oxo-3-o-tolylpropan-2-yl)-3-(methyl-amino)cyclopentanecarboxamide] was run?
A: The EC50 was no more than 10 nM.

Q: How did the EC50 turn out when CN[C@@H]1CC[C@H](C(=O)N[C@@H](Cc2ccc(F)cc2)C(=O)N2CCC(N3C(=O)C(C)(C)c4ccccc43)CC2)C1 [Example 27, (1S,3R)-N-((S)-1-(4-(3,3-dimethyl-2-oxoindolin-1-yl)piperidin-1-yl)-3-(4-fluorophenyl)-1-oxopropan-2-yl)-3-(methylamino)cyclopentane-carboxamide] was run?
A: Its EC50 is no more than 10 nM.

Q: Which EC50 does the source give for CN[C@@H]1CC[C@H](C(=O)N[C@@H](Cc2cccc(F)c2)C(=O)N2CCC(N3C(=O)C(C)(C)c4ccccc43)CC2)C1 [Example 28, (1S,3R)-N-((S)-1-(4-(3,3-dimethyl-2-oxoindolin-1-yl)piperidin-1-yl)-3-(3-fluorophenyl)-1-oxopropan-2-yl)-3-(methylamino)cyclopentane-carboxamide] here?
A: The EC50 was no more than 10 nM.

Q: With CN[C@@H]1CC[C@H](C(=O)N[C@@H](Cc2cccc(Cl)c2)C(=O)N2CCC(N3C(=O)C(C)(C)c4ccccc43)CC2)C1 [Example 29, (1S,3R)-N-((S)-3-(3-chlorophenyl)-1-(4-(3,3-dimethyl-2-oxoindolin-1-yl)piperidin-1-yl)-1-oxopropan-2-yl)-3-(methylamino)cyclopentane-carboxamide] as the molecule, how does the EC50 read?
A: Its EC50 is no more than 10 nM.

Q: For CN[C@@H]1CC[C@H](C(=O)N[C@@H](Cc2ccccc2)C(=O)N2CCC(N3C(=O)C(C)(C)c4ccccc43)CC2)C1 [Example 30, (1S,3R)-N-((S)-1-(4-(3,3-dimethyl-2-oxoindolin-1-yl)piperidin-1-yl)-1-oxo-3-phenylpropan-2-yl)-3-(methylamino) cyclopentanecarboxamide], which EC50 is on record?
A: Its EC50 is no more than 10 nM.

Q: For CN[C@@H]1CC[C@H](C(=O)N[C@@H](Cc2cccc(OC)c2)C(=O)N2CCC(N3C(=O)C(C)(C)c4ccccc43)CC2)C1 [Example 31, (1S,3R)-N-((S)-1-(4-(3,3-dimethyl-2-oxoindolin-1-yl)piperidin-1-yl)-3-(3-methoxyphenyl)-1-oxopropan-2-yl)-3-(methylamino)cyclopentane-carboxamide], which EC50 is on record?
A: Its EC50 is no more than 10 nM.

same assay, conditions: ED50 (nM), Table 15; functional activity toward GPR38 (motilin receptor), (S) versus (R) amino acid linker

Q: For CC1(C)C(=O)N(C2CCN(C(=O)[C@H](CCc3ccccc3)NC(=O)[C@@H]3CCCNC3)CC2)c2ccccc21 [Example 1, (R)—N—((S)-1-(4-(3,3-dimethyl-2-oxoindolin-1-yl)piperidin-1-yl)-1-oxo-4-phenylbutan-2-yl)piperidine-3-carboxamide], which EC50 is on record?
A: Its EC50 is 0.24 nM.
